Values quoted from earlier work in article PMC5733301, “Antitubercular Nitroimidazoles Revisited: Synthesis and Activity of the Authentic 3-Nitro Isomer of Pretomanid” (ACS Medicinal Chemistry Letters, 2017).

How the values were obtained:
[1] = tested on: M. tb having mutations in the nitroreductase Ddn; design: method as in PMID 19209889; conditions: ref [22]; cited from earlier work
[2] = tested on: M. tb having mutations in the nitroreductase Ddn; design: method as in PMID 19209889; conditions: ref [22]; cited from earlier work; remark: listed apart in the source

O=[N+]([O-])c1cn2c(n1)O[C@H](COCc1ccc(OC(F)(F)F)cc1)C2 [compound 20]
aerobic MIC99 against Ddn mutant M. tb [1]: > 100 µM | anaerobic MIC90 against Ddn mutant M. tb [2]: 62.5 to 125 µM
